Reference: US12492182B2, “Hydroxytriazine compounds and pharmaceutical use thereof” (Japan Tobacco Inc., priority 2015, dated 2025)
Like-named read-outs stand apart in the source and are kept apart here.

Key:
[1] = biological target: T1, human mPGES-1 (Homo sapiens, UniProt O14684); experiment: Evaluation of human mPGES-1 enzyme inhibitory activity (HTRF measurement of PGE2); type: biochemical; settings: IC50 value; microsome fraction of CHO-S cells expressing human mPGES-1, PGH2 substrate, PGE2 by HTRF; read-out: humans mPGES-1 enzyme inhibitory activity
T1 construct: made in house; host or cells: Chinese hamster ovary-derived cells (FreeStyle CHO-S), transient transfection of pcDNA3.1(+)/human mPGES-1; microsome fraction
T1 sequence (O14684 1-152): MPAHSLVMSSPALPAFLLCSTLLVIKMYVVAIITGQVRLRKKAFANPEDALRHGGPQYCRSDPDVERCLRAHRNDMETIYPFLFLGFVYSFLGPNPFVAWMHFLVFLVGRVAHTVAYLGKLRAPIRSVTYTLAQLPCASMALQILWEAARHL
Procedure: Experimental Example 1: Evaluation of Human mPGES-1 Enzyme Inhibitory Activity
The human mPGES-1 enzyme inhibitory activity of a test article was evaluated according to the report of Xu et al. (XU, D et al. MF63 [2-(6-chloro-1H-phenanthro[9,10-d]imidazol-2-yl)-isophthalonitrile], a selective microsomal prostaglandin E synthase-1 inhibitor relieves pyresis and pain in preclinical models of inflammation. J Pharmacol Exp Ther. September 2008, Vol. 326, No. 3, pages 754-763). The amount of PGE2 produced by human mPGES-1 in the presence of a test article was measured by the HTRF (homogeneous time resolved fluorescence) method, and the human mPGES-1 enzyme inhibitory activity of the test article was determined.
1) Preparation of Human mPGES-1 Expressing Cell Microsome Fraction
A DNA fragment containing human mPGES-1, which is added with a BamHI recognition cleavage sequence just before the translation initiation codon and an EcoRI recognition cleavage sequence just after the translation termination codon, was amplified by the PCR (Polymerase Chain Reaction) method using a human mPGES-1 expression plasmid DNA (pME-18S/iPGES-1) prepared in-house as a template. The purified DNA fragment was digested with BamHI and EcoRI, and ligated to pcDNA3.1(+) (Invitrogen, model number V790-20), similarly_digested with BamHI and EcoRI, by using a DNA Ligation kit ver. 2.1 (Takara Bio, model number 6022). The human mPGES-1 expression plasmid DNA was isolated from Escherichia coli DH5a (TOYOBO, model number DNA-903) transformed with the obtained ligation product. The base sequence of human mPGES-1 cloned to a vector was determined by the Dye Terminator method using BigDye Terminator v3.1 Cycle Sequencing Kit (Applied Biosystems, #4337455). The determined sequence was identical with the sequence of the protein translational region of human mPGES-1 (Accession number NM 004878) registered in the NCBI Reference Database.
Human mPGES-1 expression plasmid DNA was transfected into Chinese hamster ovary-derived cells (FreeStyle CHO-S Cell, Invitrogen, #R^800-07) by using a transgene reagent (FreeStyle MAX Reagent (Invitrogen, #16447-100)), and cultured with shaking (8% CO2, 37° C.) in a medium containing 8 mmol/L L-glutamine (GIBCO FreeStyle CHO Expression Medium, Invitrogen, #12651-022) for 48 hr.
The CHO-S cells were suspended in Homogenate Buffer (100 mmol/L potassium phosphate (pH 7.4), 250 mmol/L Sucrose, 100 mmol/L EDTA, complete EDTA free (Roche, #1873580)). Using an ultrasonic disruptor UD-201 (Tomy Seiko), the suspended cells were disrupted at output:3, duty cycle:50 for 30 seconds. The precipitate was removed by centrifugation (1,000×g, 5 min, 4° C.), and the supernatant was centrifuged (5,000×g, 10 min, 4° C.). The supernatant was further centrifuged (105,000×g, 60 min, 4° C.). The obtained precipitate was suspended in Resuspension Buffer (100 mmol/L potassium phosphate (pH 7.4), 250 mmol/L sucrose, 100 mmol/L EDTA, 10% glycerol) to give a microsome fraction.
The protein concentration of the microsome fraction was measured by the Bradford method (Protein Assay Kit, Bio-Rad). The microsome fraction was rapidly frozen in liquid nitrogen and preserved at −80° C. Human mPGES-1 in the microsome fraction was detected by Western Blot using rabbit anti-mPGES-1 polyclonal antibody (ThermoFisher Scientific, #PA1-10264).
2) Evaluation of Human mPGES-1 Enzyme Inhibitory Activity
A test article solution diluted with 0.1 mol/L potassium phosphate, pH 7.4 (hereinafter to be referred to as KPB) or DMSO (Nacalai Tesque, #13407-45) was added at 5 μL/well to 96 well V-bottom plate (Corning, #3363). The final DMSO concentration during the reaction was set to 2%(v/v). Furthermore, a microsome fraction of CHO-S cells expressing human mPGES-1, which was diluted with reduced GSH (12.5 mmol/L KPB solution, SIGMA, #G6529-25G) such that the protein concentration was 5 μg/mL, was added at 20 μL/well. […]

[2] = test system: A549 cell; experiment: Evaluation of PGE2 production inhibitory action using A549 cell (IL-1β stimulated); type: cell-based, human
Procedure: Experimental Example 2: Evaluation of PGE2 Production Inhibitory Action Using A549 Cell
A549 cell (Japan Health Sciences Foundation Research Resources Bank), which is cell line derived from humans lung cancer, was suspended in assay medium (Ham's F-12K (Wako, #080-08565) containing 2% FBS (Hyclone Laboratories, #SH30910.03), 100 units/mL penicillin and 100 μg/mL streptomycin (Invitrogen, #15140-122)), the suspension was added at 2.5×10^4 cells/100 μL/well to 96 well flat-bottom plate (Corning, #353072), and the plate was left standing for 20 hr in a CO2 incubator set at 37° C. The test article was serially diluted with DMSO (Nacalai Tesque, #13407-45), and then 20-fold diluted with the assay medium to prepare a test article solution having a ten-fold concentration of the final concentration. The final DMSO concentration during the reaction was set to 0.5% (v/v). The medium was removed from the plate in which the cell was added, new assay medium was added at 160 μL/well to the plate, and the plate was left standing for 10 min in a CO2 incubator. Then, the test article solution was added at 20 μL/well to the plate, and the plate was left standing for 30 min in a CO2 incubator. Next, recombinant humans IL-1β (R&D Systems, #201-LB) as a stimulant to enhance PGE2 production due to increase of mPGES-1 mRNA expression was added at 20 μL/well (the final concentration was 1 ng/mL) to the plate, and the plate was left standing for 18 hr in a CO2 incubator. The supernatant was collected at 180 μL/well, and the PGE2 concentration was measured using Prostaglandin E2 assay (CISbio Bioassays, #62P2APEC) according to the manual. As the reference standard for analytical curve, PGE2 (Cayman Chemical, #14010) was used. Using EnVision 2104 (Perkin Elmer), the time-resolved fluorescence at 620 nm and 665 nm relative to the excitation light at 337 nm was measured. PGE2 concentration was extrapolated from the PGE2 analytical curve. Average of the PGE2 concentrations of the respectively-treated wells was used as the data.
The PGE2 production inhibitory activity (%) of the test article was calculated according to the following Formula 3. PGE2 production inhibitory activity(%)=(PGE2A−PGE2X)/(PGE2A−PGE2B)×100 [Formula 3] • PGE2A: PGE2 concentration of vehicle-treated well • PGE2B: PGE2 concentration of blank well (no addition of recombinant humans IL-1B) • PGE2X: PGE2 concentration of test article-treated well

[3] = Homo sapiens, A549, 18 h, IC50 value, A549 cell, recombinant IL-1β 1 ng/mL, 18 hr, PGE2 in supernatant, read-out: cell PGE2 production inhibitory activity
[4] = Homo sapiens, A549, A549 cell, recombinant human IL-1β stimulation, read-out: cell PGE2 production inhibitory activity (IC50 value)
[5] = A549 cell, recombinant human IL-1β stimulation, read-out: cell PGE2 production inhibitory activity (IC50 value)

Row | IC50 [1] [nM] | IC50 [2, 3] [nM] | IC50 [2, 4] [nM] | IC50 [2, 5] [nM] | Structure (SMILES)
1 | 3 | 170 |  |  | CCOc1ccc(-c2nc(O)nc(-c3cc(CNC(=O)C4(OC)CCCC4)ccc3Cl)n2)cn1 [Example 37]
2 | 3.8 |  | 9 |  | CC(C)c1cc(-c2nc(O)nc(-c3cc(CNC(=O)C4(C(F)F)CCCC4)ccc3Cl)n2)ccc1Cl [Example 97]
3 | 12 | 2.9 |  |  | CCCOc1ccc(-c2nc(O)nc(-c3cc(CNC(=O)C(C)(C)C(F)(F)F)ccc3Cl)n2)cc1C(C)C [Example 4]
4 | 67 | 1300 |  |  | CCOC(C)(C)C(=O)NCc1ccc(Cl)c(-c2nc(O)nc(-c3cccc(C(C)C)c3)n2)c1 [Example 17]
5 | 0.8 |  | 44 |  | CC(C)c1cccc(-c2nc(O)nc(-c3cc(CNC(=O)C(C)(C)C(F)F)ccc3Cl)n2)c1 [Example 77]
6 | 0.2 | 17 |  |  | Cc1cc(-c2nc(O)nc(-c3cc(CNC(=O)C(C)(C)C(F)(F)F)ccc3Cl)n2)cc(C(C)(C)C)c1 [Example 11]
7 | 1 | 150 |  |  | COc1ncc(-c2nc(O)nc(-c3cc(CNC(=O)C(C)(C)C(F)(F)F)ccc3Cl)n2)cc1C(C)C [Example 58]
8 | 0.8 | 69 |  |  | COc1ccc(-c2nc(O)nc(-c3cc(CNC(=O)C4(C(F)(F)F)CCCC4)ccc3Cl)n2)cn1 [Example 29]
9 | 3.6 | 26 |  |  | COC(C)(C)c1cccc(-c2nc(O)nc(-c3cc(CNC(=O)C(C)(C)C(F)(F)F)ccc3Cl)n2)c1 [Example 44]
10 | 3.2 | 4.1 |  |  | CCCOc1ccc(-c2nc(O)nc(-c3cc(CNC(=O)C4(C(F)(F)F)CCCCC4)ccc3Cl)n2)cn1 [Example 46]
11 | 1.4 |  |  | 2.4 | CCC(OC)(C(=O)NCc1ccc(Cl)c(-c2nc(O)nc(-c3cccc(C(C)(C)C)c3)n2)c1)C(F)(F)F (centres unmarked) [Example 133]
12 | 0.5 |  | 90 |  | CC(C)c1cccc(-c2nc(O)nc(-c3cc(CNC(=O)C4(CF)CCCC4)ccc3Cl)n2)c1 [Example 92]
13 | 30 | 150 |  |  | CC(C)(C)c1cc(-c2nc(O)nc(-c3cc(CNC(=O)C(C)(C)C(F)(F)F)ccc3Cl)n2)cc(C(C)(C)C)c1 [Example 20]
14 | 6 |  | 1.6 |  | CCC[C@@H](C)Oc1ccc(-c2nc(O)nc(-c3cc(CNC(=O)C4(C(F)(F)F)CCCC4)ccc3Cl)n2)cn1 [Example 125]
15 | 0.5 |  | 79 |  | COCCCCOc1ccc(-c2nc(O)nc(-c3cc(CNC(=O)C(C)(C)C(F)(F)F)ccc3Cl)n2)cn1 [Example 61]
16 | 2.4 |  | 2.4 |  | CC(C)c1cc(-c2nc(O)nc(-c3cc(CNC(=O)C4(C(F)F)CCCCC4)ccc3Cl)n2)ccc1Cl [Example 108]
17 | 0.8 | 33 |  |  | COc1ccc(-c2nc(O)nc(-c3cc(CNC(=O)C4(C(F)(F)F)CCCCC4)ccc3Cl)n2)cn1 [Example 30]
18 | 0.5 | 2.9 |  |  | Cc1ccc(-c2nc(O)nc(-c3cc(CNC(=O)C(C)(C)C(F)(F)F)ccc3Cl)n2)cc1C(C)(C)C [Example 54]
19 | 0.8 | 11 |  |  | CCOc1ccc(-c2nc(O)nc(-c3cc(CNC(=O)C4(C(F)(F)F)CCCCC4)ccc3Cl)n2)cn1 [Example 33]
20 | 2.1 | 27 |  |  | CCCCOc1cccc(-c2nc(O)nc(-c3cc(CNC(=O)C(C)(C)C(F)(F)F)ccc3Cl)n2)c1 [Example 3]
21 | 7.2 | 2.4 |  |  | CCCCCCOc1ccc(-c2nc(O)nc(-c3cc(CNC(=O)C(C)(C)C(F)(F)F)ccc3Cl)n2)cn1 [Example 23]
22 | 2 | 14 |  |  | COc1ccc(-c2nc(O)nc(-c3cc(CNC(=O)C(C)(C)C(F)(F)F)ccc3Cl)n2)cc1C(C)C [Example 35]
23 | 2.7 |  | 2 |  | CCC[C@@H](C)Oc1ccc(-c2nc(O)nc(-c3cc(CNC(=O)[C@@](C)(OC)C(F)(F)F)ccc3Cl)n2)cn1 [Example 80]
24 | 2.4 |  | 0.9 |  | CCC[C@@H](C)Oc1ccc(-c2nc(O)nc(-c3cc(CNC(=O)C4(C(F)F)CCCCC4)ccc3Cl)n2)cn1 [Example 127]
25 | 1.7 |  |  | 19 | CCC(OC)(C(=O)NCc1ccc(Cl)c(-c2nc(O)nc(-c3cccc(C(C)C)c3)n2)c1)C(F)(F)F (single isomer, unassigned) [Example 134]
26 | 19 |  | 1.6 |  | CC(C)c1cc(-c2nc(O)nc(-c3cc(CNC(=O)C(C)(C(F)(F)F)C(F)(F)F)ccc3Cl)n2)ccc1Cl [Example 88]
27 | 2.9 | 4.5 |  |  | COC1(C(=O)NCc2ccc(Cl)c(-c3nc(O)nc(-c4ccc(Cl)c(C(C)C)c4)n3)c2)CCCCC1 [Example 57]
28 | 4.7 |  | 2.6 |  | CCC(OC)(C(=O)NCc1ccc(Cl)c(-c2nc(O)nc(-c3ccc(Cl)c(C(C)C)c3)n2)c1)C(F)(F)F (centres unmarked) [Example 137]
